# [OPr] = 2'-O-propyl ribonucleotide; d = 2'-deoxy (DNA); m = 2'-O-methyl; f = 2'-fluoro
# What was measured:
# PKC-α mRNA = PKC-α mRNA levels by Northern blot analysis; type: cell-based, human; details: FIGS. 3, 4 and 5; result in words
# Experimental: Oligonucleotides having SEQ ID NO: 4 were synthesized as uniformly phosphorothioate chimeric oligonucleotides having a centered deoxy gap of varying lengths flanked by 2′-O-methylated regions. These oligonucleotides (500 nM concentration) were tested for effects on PKC-α mRNA levels by Northern blot analysis.
# [1] = test system: complementary RNA strand (the sense strand); assay: Thermal melting analysis of 2′-deoxy-2′-fluoro modified oligonucleotides (Table 1); type: binding
# ras mRNA = assay: Northern blot analysis of ras expression in T24 cells; type: cell-based, human; design: inhibition of ras expression / decrease of ras mRNA: concentration or dose not given beside the values
# Experimental: The human urinary bladder cancer cell line T24 was obtained from the American Type Culture Collection (Rockville Md.). Cells were grown in McCoy's 5A medium with L-glutamine (GIBCO-BRL, Gaithersburg, Md.), supplemented with 10% heat-inactivated fetal calf serum and 50 U/ml each of penicillin and streptomycin. Cells were seeded on 100 mm plates. When they reached 70% confluency, they were treated with oligonucleotide. Plates were washed with 10 ml prewarmed PBS and 5 ml of OptiMEM (GIBCO) reduced-serum medium containing 2.5 μl DOTMA. Oligonucleotide was then added to the desired concentration. After 4 hours of treatment, the medium was replaced with McCoy's medium. Cells were harvested 48 hours after oligonucleotide treatment and RNA was isolated using a standard CsCl purification method. [Kingston in Current Protocols in Molecular Biology, F. M. Ausubel, R. Brent, R. E. Kingston, D. D. Moore, J. A. Smith, J. G. Seidman and K. Strahl, Eds., John Wiley and Sons, New York.] The human epithelioid carcinoma cell line HeLa 229 was obtained from the American Type Culture Collection (Bethesda, Md.). HeLa cells were maintained as monolayers on 6-well plates in Dulbecco's Modified Eagle's medium (DMEM) supplemented with 10 fetal bovine serum and 100 U/ml penicillin. Treatment with oligonucleotide and isolation of RNA were essentially as described above for T24 cells.
# Northern hybridization: 10 μg of each RNA was electrophoresed on a 1.2% agarose/formaldehyde gel and transferred overnight to GeneBind 45 nylon membrane (Pharmacia LKB, Piscataway, N.J.) using standard methods. [Kingston in Current Protocols in Molecular Biology, F. M. Ausubel, R. Brent, R. E. Kingston, D. D. Moore, J. A. Smith, J. G. Seidman and K. Strahl, Eds., John Wiley and Sons, New York.] RNA was UV-crosslinked to the membrane. Double-stranded ^32P-labeled probes were synthesized using the Prime a Gene labeling kit (Promega, Madison Wis.). The ras probe was a SalI-NheI fragment of a cDNA clone of the activated (mutant) H-ras mRNA having a GGC-to-GTC mutation at codon-12. The control probe was G3PDH. Blots were prehybridized for 15 minutes at 68° C. with the QuickHyb hybridization solution (Stratagene, La Jolla, Calif.). The heat-denatured radioactive probe (2.5×10^6 counts/2 ml hybridization solution) mixed with 100 μl of 10 mg/ml salmon sperm DNA was added and the membrane was hybridized for 1 hour at 68° C. The blots were washed twice for 15 minutes at room temperature in 2×SSC/0.1% SDS and once for 30 minutes at 60° C. with 0.1×SSC/0.1%SDS. Blots were autoradiographed and the intensity of signal was quantitated using an ImageQuant PhosphorImager (Molecular Dynamics, Sunnyvale, Calif.). Northern blots were first hybridized with the ras probe, then stripped by boiling for 15 minutes in 0.1×SSC/0.1%SDS and rehybridized with the control G3PDH probe to check for correct sample loading.
# [2] = test system: RNA complement “Y” strand ribo(3′GAG CAU GGY AAG GCC AGG5′); assay: Base-pair specificity: single base-pair mismatches and a bulge (Table 2); type: binding
# Experimental: The ability of the 2′-modified oligonucleotides to hybridize to their complementary RNA or DNA sequences was determined by thermal melting analysis. The RNA complement was synthesized from T7 RNA polymerase and a template-promoter of DNA synthesized with an Applied Biosystems, Inc. 380B RNA species was purified by ion exchange using FPLC (LKB Pharmacia, Inc.). Natural antisense oligonucleotides or those containing 2′-modifications at specific locations were added to either the RNA or DNA complement at stoichiometric concentrations and the absorbance (260 nm) hyperchromicity upon duplex to random coil transition was monitored using a Gilford Response II spectrophotometer. These measurements were performed in a buffer of 10 mM Na-phosphate, pH 7.4, 0.1 mM EDTA, and NaCl to yield an ionic strength of 10 either 0.1 M or 1.0 M. Data was analyzed by a graphic representation of 1/Tm vs ln[Ct], where [Ct] was the total oligonucleotide concentration. From this analysis the thermodynamic parameters were determined. Based upon the information gained concerning the stability of the duplex of heteroduplex formed, the placement of modified pyrimidine into oligonucleotides were assessed for their effects on helix stability.
# Base-pair specificity of 2′-deoxy-2′-fluoro modified oligonucleotides with the RNA complement (a “Y” strand) was determined by effecting single base-pair mismatches and a bulge. […] In Table 2, the underlined nucleotides represent nucleotides that include a 2′-deoxy-2′-fluoro substituent.
# [3] = test system: codon-12 point mutation of mutant (activated) H-ras RNA; type: cell-based, human
# [4] = G°37, antisense strand duplexed with RNA sense strand
# [5] = difference (delta Tm) to the unmodified strand
# [6] = difference to the unmodified strand
# [7] = first Tm column, duplex with RNA sense strand
# [8] = Y = C, mismatch, difference to Watson-Crick
# [9] = Y = G, mismatch, difference to Watson-Crick
# [10] = Y = None, bulged T/U, difference to Watson-Crick
# [11] = Y = U, mismatch, difference to Watson-Crick
substance,measurement,setting,value
"7083 (TCTCGCTGGTGAGTTTC; antisense; sugars from the 5' end [OPr]3 d9 [OPr]5, all phosphorothioate, methylation of C not given here) [Oligonucleotide 7083]",effect on PKC-α mRNA levels,PKC-α mRNA,most active in reducing PKC-α mRNA levels
"7294 (AAAACGTCAGCCATGGTCCC; sugars from the 5' end [OPr]6 d14, linkages s1 o4 s9 o4 s1 (s phosphorothioate, o phosphodiester), methylation of C not given here) [Oligonucleotide 7294]",effect on PKC-α mRNA levels,PKC-α mRNA,more active than their 2′-O-methyl counterparts at lowering PKC-α mRNA levels
"CUC GUA CCU UCC GGU CC (CUCGUACCUUCCGGUCC; 2'-deoxy-2'-fluoro A, T, C, chemistry not fully specified)",G°37,[1]; [4],-27.81 ± 0.05 kcal/mol
same,Tm (° C.),[1]; [5],+1.4 °C
same,G°37,[1]; [6],-13.24 ± 0.14 kcal/mol
same,Tm (° C.),[1]; [7],81.6 °C
"3522 (AsAsAsAsCsGsTsCsAsGsCsCsAsTsGsGsTsCsCsC; 2'-O-methyl/deoxy chimeric, phosphorothioate, as printed in the source, key not given here) [Oligonucleotide 3522]",effect on PKC-α mRNA levels,PKC-α mRNA,show reduction of PKC-α mRNA
"4998 (CTTATATTCCGTCATCGCTC; sugars from the 5' end m6 d7 m7, all phosphorothioate, methylation of C and T or U not given here) [Oligonucleotide 4998]",inhibition of ras expression / decrease of ras mRNA,ras mRNA,84%
"deoxy(CTC GTA CCT TTC CGG TCC) (CTCGTACCTTTCCGGTCC; DNA, backbone not given here) [reference compound]",G°37,"[2]; Y = A, Watson-Crick",-14.57 ± 0.13 kcal/mol
same,Tm (° C.),"[2]; Y = A, Watson-Crick",61.6 °C
same,G°37,"[2]; Y = C, mismatch",-12.78 ± 0.11 kcal/mol
same,Tm (° C.),"[2]; Y = C, mismatch",54.4 °C
same,G°37,[2]; [8],1.79 ± 0.17 kcal/mol
same,Tm (° C.),[2]; [8],−7.2 °C
same,G°37,"[2]; Y = G, mismatch",-16.39 ± 0.25 kcal/mol
same,Tm (° C.),"[2]; Y = G, mismatch",61.7 °C
same,G°37,[2]; [9],-1.82 ± 0.28 kcal/mol
same,Tm (° C.),[2]; [9],0.1 °C
same,G°37,"[2]; Y = None, bulged T/U",-14.86 ± 0.35 kcal/mol
same,Tm (° C.),"[2]; Y = None, bulged T/U",59.4 °C
same,G°37,[2]; [10],-0.284 ± 0.37 kcal/mol
same,Tm (° C.),[2]; [10],−2.2 °C
same,G°37,"[2]; Y = U, mismatch",-13.48 ± 0.17 kcal/mol
same,Tm (° C.),"[2]; Y = U, mismatch",55.9 °C
same,G°37,[2]; [11],1.09 ± 0.22 kcal/mol
same,Tm (° C.),[2]; [11],−5.7 °C
"deoxy(CUC GUA CCU UUC CGG UCC) (CUCGUACCUUUCCGGUCC; sugars from the 5' end fffdfffffffffddffd, backbone, methylation of C and T or U not given here)",G°37,"[2]; Y = A, Watson-Crick",-27.80 ± 0.05 kcal/mol
same,Tm (° C.),"[2]; Y = A, Watson-Crick",81.6 °C
same,G°37,"[2]; Y = C, mismatch",-21.98 ± 0.28 kcal/mol
same,Tm (° C.),"[2]; Y = C, mismatch",73.8 °C
same,G°37,[2]; [8],5.82 ± 0.28 kcal/mol
same,Tm (° C.),[2]; [8],−7.8 °C
same,G°37,"[2]; Y = G, mismatch",-21.69 ± 0.16 kcal/mol
same,Tm (° C.),"[2]; Y = G, mismatch",77.8 °C
same,G°37,[2]; [9],6.12 ± 0.17 kcal/mol
same,Tm (° C.),[2]; [9],−3.8 °C
same,G°37,"[2]; Y = None, bulged T/U",-22.87 ± 0.27 kcal/mol
same,Tm (° C.),"[2]; Y = None, bulged T/U",75.5 °C
same,G°37,[2]; [10],4.94 ± 0.27 kcal/mol
same,Tm (° C.),[2]; [10],−6.2 °C
same,G°37,"[2]; Y = U, mismatch",-18.68 ± 0.15 kcal/mol
same,Tm (° C.),"[2]; Y = U, mismatch",73.6 °C
same,G°37,[2]; [11],9.13 ± 0.16 kcal/mol
same,Tm (° C.),[2]; [11],−8.0 °C
same,specificity of duplex formation with the RNA complement,[2]; versus like-sequenced unmodified oligonucleotide,greater specificity than a like-sequenced unmodified oligonucleotide
"oligonucleotide with the 2′-O-propyl diester flanking regions: SEQ ID NO: 1, phosphorothioate in the 7-base deoxy gap only, phosphodiester 2′-O-propyl flanking regions (DNA CCACACCGACGGCGCCC; 2'-O-propyl flanks, phosphorothioate gap, chemistry not fully specified)","effect on ras expression (ras-luciferase reporter system), chimeric backbone-modified oligonucleotides",[3],able to inhibit ras expression
"3975 (CCACACCGACGGCGCCC; chimeric 2'-O-methyl phosphorothioate, pattern not given here) [Oligonucleotide 3975]",inhibition of ras-luciferase activity,[3],neither of the oligonucleotides having either the one or the three 2′-deoxy-erythro-pentofuranosyl nucleotide subsequences showed significant activity
CsCsAsCsAsCsCsGsAoCsGsGsCsGsCsCsC [Oligonucleotide 4248],"effect on ras expression (ras-luciferase reporter system), chimeric backbone-modified oligonucleotides",[3],just as active as a full P═S molecule
ps(CGA CUA UGC AAG UAC),G°37,[1]; [4],-15.90 ± 0.34 kcal/mol
same,Tm (° C.)/subst.,[1]; delta Tm per 2′-fluoro substitution,+2.5 °C
same,Tm (° C.),[1]; [5],+27.0 °C
same,G°37,[1]; [6],-8.32 ± 0.34 kcal/mol
same,Tm (° C.),[1]; [7],60.9 °C
"3980 (CCACACCGACGGCGCCC; chimeric 2'-O-methyl phosphorothioate, pattern not given here) [Oligonucleotide 3980]",inhibition of ras expression / decrease of ras mRNA,ras mRNA,61%
same,inhibition of ras-luciferase activity,[3],next greatest inhibition
"3984 (CCACACCGACGGCGCCC; chimeric 2'-O-methyl phosphorothioate, pattern not given here) [Oligonucleotide 3984]",inhibition of ras expression / decrease of ras mRNA,ras mRNA,81%
same,inhibition of ras-luciferase activity,[3],greater inhibition of ras-luciferase activity than did oligonucleotide 2570
"CTC GTA CCT TCC GGT CC (CTCGTACCTTCCGGTCC; listed as DNA, chemistry not fully specified) [reference compound]",G°37,[1]; [4],-14.57 ± 0.13 kcal/mol
same,Tm (° C.),[1]; [7],61.6 °C
ps(CGA CTA TGC AAG TAC) [reference compound],G°37,[1]; [4],-7.58 ± 0.06 kcal/mol
same,Tm (° C.),[1]; [5],−11.2 °C
same,Tm (° C.),[1]; [7],33.9 °C
C^MC^MA^M C^MA^MC^M CdGdAd CdGdG^M C^MG^MC^M C^MC^M [Oligonucleotide 3980],inhibition of ras expression in T24 cells,ras mRNA; result in words,inhibited ras expression
CTTATATTCCGTCATCGCTC [Oligonucleotide 2502],inhibition of ras expression / decrease of ras mRNA,ras mRNA,26%
"3979 (CCACACCGACGGCGCCC; chimeric 2'-O-methyl phosphorothioate, pattern not given here) [Oligonucleotide 3979]",activity at the highest concentration dose,[3],measurable activity
same,inhibition of ras-luciferase activity,[3],neither of the oligonucleotides having either the one or the three 2′-deoxy-erythro-pentofuranosyl nucleotide subsequences showed significant activity

# — patent US20030187240A1, “2' -modified oligonucleotides” (ISIS Pharmaceuticals, Inc., priority 1990, published 2003)
